Results as given in patent publication US20120283304A1, “Formulations of Temozolomide for Parenteral Administration” (SAHAJ LIFE SCIENCES PVT. LTD., priority 2009, published 2012).
Read-outs that look alike come from different tables or passages of the source.

Experiments:
[1] = Chemical parameters (assay and impurities) of the lyophilised formulations; format: physicochemical
Procedure: The formulations were analysed and the data is tabulated below: […]

[2] = cited from earlier work
[3] = cited from earlier work; remark: listed apart in the source

% Assay [1]: 100.3% | % Impurities AIC [1]: 0.02% | % Impurities Any other maximum impurity [1]: Not detected | % Impurities MTC-1 [1]: Not detected | % Impurities Total impurities [1]: 0.04%
Structure (SMILES): Cn1nnc2c(C(N)=O)ncn2c1=O [Temozolomide, 3-methyl-8-carbamoyl-imidazo[5,1-d]-1,2,3,5-tetrazin-4(3H)-one]
Solubility in water [2]: only slightly soluble | Stability ([3]; acidic pH less than 5): stable | Stability ([3]; pH greater than 7): unstable
